How the values were obtained:
diarrhea = assay: Inducing effect of diarrhea (rats, oral administration)
[1] = test system: Diclofenac sodium-induced stomach ulcer; assay: Administering time of Ornoprostil and suppression of Diclofenac sodium-induced stomach ulcer; type: in vivo, rat; details: for Antiulcer coefficient: inhibition ratio/incidence rate; for Incidence rate of ulcer (Number of Examples): rat oral
[2] = test system: glycerol-induced nephropathy; assay: Glycerol-induced nephropathy; type: in vivo, rat; details: serum 48 hours after glycerol
Description: After weighing SPF/Crj strain maleness rats (9 weeks of ages), they were so divided that average weight of each group might almost be equal. At 48 hours after 50% glycerol (10 ml/kg) (medium: physiological salt solution) was subcutaneously administered to rats deprived water for 48 hours (±2 hour) on […], about 1.5 ml of blood was gathered from the jugular under ether anesthesia. […] Water was supplied to them 2 hour later from administration of glycerol. Those serums were obtained by centrifugal separation (for about 4° C., 3000 rpm, for 15 minutes) of the gathered blood. Urea nitrogen (abbreviated as UN.) (urease·GIDH method) and creatinine (abbreviated as CRE.) (Creatininase·F-DAOS method) in the obtained serum were measured with the biochemistry automated analyzer (AU400 (trade name), Olympus Optical Co., Ltd.).

[3] = OU 0 minutes before Di administering
[4] = OU 5 minutes after Di administering
[5] = OU 5 minutes before Di administering
[6] = OU 10 minutes after Di administering
[7] = OU 10 minutes before Di administering
[8] = OU 30 minutes after Di administering
[9] = OU 30 minutes before Di administering
[10] = OU 60 minutes after Di administering
[11] = OU 60 minutes before Di administering
[12] = GC (subcutis) + OU (10 μg) oral

Compound: 15-deoxy-16-hydroxy-16-methyl-PGE1 methyl ester [Misoprostol]
- Number of animals which cause diarrhea/number of laboratory animals (diarrhea; 50 μg/kg): 0/5
- Number of animals which cause diarrhea/number of laboratory animals (diarrhea; 100 μg/kg): 1/5

Compound: CCCC[C@H](C)C[C@H](O)/C=C/[C@H]1[C@H](O)CC(=O)[C@@H]1CC(=O)CCCCC(=O)OC [Ornoprostil, 17S, 20-dimethyl-6-keto PGE1 methyl ester]
- Antiulcer coefficient [1, 3]: 86.9
- Incidence rate of ulcer (Number of Examples) [1, 3]: 7/8
- Antiulcer coefficient [1, 4]: 7.1
- Incidence rate of ulcer (Number of Examples) [1, 4]: 7/8
- Antiulcer coefficient [1, 5]: 100.9
- Incidence rate of ulcer (Number of Examples) [1, 5]: 6/8
- Antiulcer coefficient [1, 6]: 28.8
- Incidence rate of ulcer (Number of Examples) [1, 6]: 8/8
- Antiulcer coefficient [1, 7]: 125.1
- Incidence rate of ulcer (Number of Examples) [1, 7]: 5/8
- Antiulcer coefficient [1, 8]: 16.1
- Incidence rate of ulcer (Number of Examples) [1, 8]: 7/8
- Antiulcer coefficient [1, 9]: 56.2
- Incidence rate of ulcer (Number of Examples) [1, 9]: 7/8
- Antiulcer coefficient [1, 10]: 4.1
- Incidence rate of ulcer (Number of Examples) [1, 10]: 6/8
- Antiulcer coefficient [1, 11]: 97.3
- Incidence rate of ulcer (Number of Examples) [1, 11]: 7/8
- CRE (serum creatinine) ([2]; GC (subcutis) + OU (3 μg) oral): 1.38 mg/dL
- UN (serum urea nitrogen) ([2]; GC (subcutis) + OU (3 μg) oral): 89.7 mg/dL
- CRE (serum creatinine) [2, 12]: 1.03 mg/dL
- UN (serum urea nitrogen) [2, 12]: 79.9 mg/dL
- Dose which generates induced effect of diarrhea (diarrhea): ≥ 400 µg/kg

— patent US20040068014A1 (priority 2001, published 2004)
